Results as given in publication PMC12040169 (PLOS Biology, 2025).

Test: in vitro
Conditions: human, hela cells, % viability

Row | SMILES | viability at 28.5 h, 10 µM
1 | Cc1cc2nccc(C3CCCN(C(=O)OC(C)(C)C)C3)n2n1 (centres unmarked) [CBK284037] | 90.8%
2 | CSc1cccc(C(=O)Nc2sc3c(c2C#N)CCN(C(C)=O)C3)c1 [CBK304390] | 56%
3 | O=C(Nc1ccc(N2CCCC2)c(F)c1)C1CC(=O)N(C2CC2)C1 (centres unmarked) [CBK281461] | 100%
4 | COc1nccnc1OC1CCN(CCOc2ccccc2)CC1 [CBK084260] | 94.4%
5 | CC(Cc1nc(-c2nccn2C(C)C)cs1)n1cc(Cl)cn1 (centres unmarked) [CBK304251] | 102%
6 | Cc1nn(-c2ccc(C(=O)O)cc2)c2c1C(=O)CC(C)(C)C2 [CBK286734] | 86.4%
7 | c1ccc(COc2nccnc2-c2cccs2)nc1 [CBK107055] | 107%
8 | O=C(c1nn2c(C(F)(F)F)cc(-c3ccccc3)nc2c1Br)N1CCCCC1 [CBK051497] | 97.6%
9 | CCOC(=O)c1ccccc1NS(=O)(=O)c1ccc(C(F)(F)F)cc1[N+](=O)[O-] [CBK050584] | 96.2%
10 | O=C(Nc1ccc(Cl)c(Cl)c1)Nc1ccccc1C(=O)O [CBK263344] | 82%
11 | CC1CCN(Cc2ccc(-c3cn(CC(=O)NCc4ccc(Br)cc4)nn3)cc2)CC1 [CBK164709] | 93%
12 | CN1C(=O)C2(CC(=O)N(CCC3CCCCC3)C2=O)c2cc(Cl)ccc21 (centres unmarked) [CBK075231] | 92%
13 | Nc1nc2sc3c(c2cc1C(=O)N1CCOCC1)CCCC3 [CBK022399] | 96.1%
14 | c1csc(-c2cnc3ccccc3n2)c1 [CBK020525] | 93.2%
15 | Cc1nn(C)cc1C(=O)N1CCCC1c1nc2ccccc2[nH]1 (centres unmarked) [CBK282371] | 84.7%
16 | O=C(CC1CCCCC1)Nc1snnc1-c1ccc(Cl)cc1 [CBK153245] | 114%
17 | Cc1ccc(S(=O)(=O)NC[C@H]2CC[C@H](C(=O)O)CC2)cc1 [CBK286706] | 96.1%
18 | CN(C)Cc1ccc(-c2cc3occ(-c4ccccc4)c3c(=O)n2C)cc1 [CBK025372] | 103%
19 | CCOC(=O)N(C)c1c(CC)nc2ccc(C(=O)Nc3cc(-c4ccccc4)ccc3OC)cn12 [CBK145478] | 89.6%
20 | O=S(=O)(O)CCCSc1nc2ccccc2o1 [CBK026507N] | 97.2%
21 | COc1ccc2sc(Nc3ccc(F)cc3)nc2c1 [CBK287641] | 95.3%
22 | Cc1c(C(=O)O)sc2nc(SCC(=O)NCc3ccccc3)[nH]c(=O)c12 [CBK287609] | 94.2%

Row | SMILES | viability at 28.5 h, 10 µM
23 | CCN(CC)C(=O)c1ccsc1NS(=O)(=O)c1ccc(Br)cc1 [CBK042318] | 93.2%
24 | CC1Cc2cc(C(=O)C3=C(O)C(=O)N(Cc4ccco4)C3c3cccnc3)ccc2O1 (centres unmarked) [CBK266236] | 104%
25 | CCn1c(CN2CC(n3nc(C)cc3C)C2)nc2c(F)cccc21 [CBK306220] | 82%
26 | O=C(NCCc1c[nH]c2ccc(Cl)cc12)c1ccoc1 [CBK159782] | 97.9%
27 | CC(=O)c1ccc(-c2nccnc2N(C)Cc2ccccc2)s1 [CBK037504] | 112%
28 | O=C(Nc1ccccc1)c1ccc(N2CCN(c3ccccn3)CC2)c(S(=O)(=O)N2CCOCC2)c1 [CBK266810] | 91.7%
29 | COc1cc(NC(=O)N(CCC#N)C2CCCCC2)cc(OC)c1OC [CBK156380] | 94.4%
30 | CC(C(=O)N1CCOCC1)N(c1cc(Cl)ccc1Cl)S(C)(=O)=O (centres unmarked) [CBK270270] | 88.8%
31 | O=C(CSc1ncnc2[nH]ncc12)c1ccc(-c2ccccc2)cc1 [CBK300519] | 88.4%
32 | CCC1(C)CC(C(CCN)c2ccc(C)cc2)CCO1 (centres unmarked) [CBK027350] | 98.8%
33 | COc1ccc(C2=CC(c3ccc(Cl)cc3)N3N=CNC3=N2)cc1OC (centres unmarked) [CBK287966] | 84.3%
34 | O=C(CC(NC1CCCC1)C(=O)O)Nc1ccc(F)cc1 (centres unmarked) [CBK266976] | 93.9%
35 | O=C(O)c1cccc(NC(=O)c2cc(-n3cnnc3)ccc2Cl)c1 [CBK268026] | 83%
36 | CC(C)(C)OC(=O)N1CCC(CNS(=O)(=O)c2ccc3c(c2)OCCO3)CC1 [CBK076971] | 90.6%
37 | Cc1nn(C)c(C)c1NC(=O)c1ncoc1-c1ccc(F)cc1 [CBK282359] | 87.7%
38 | Cc1noc(C)c1CC(=O)Nc1nc2c(cc1C#N)CCCC2 [CBK306429] | 97.1%
39 | O=C(Nc1ccnn1Cc1cccs1)N1Cc2cnn(CCO)c2C1 [CBK307150] | 89.7%
40 | COc1cccc(CCNCC(O)COc2ncnc3ccccc23)c1 (centres unmarked) [CBK028127T] | 93.1%
41 | CC1CC(N(C(=O)c2cccc(Br)c2)c2ccccc2)c2ccccc2N1 (centres unmarked) [CBK262966] | 96.7%
42 | Brc1cn2ccnc2c(NCC2CC2)n1 [CBK037432] | 93.6%
43 | OCc1ccc(CN2C[C@H](O)C[C@H]2c2nc(-c3ccc(F)cc3)no2)o1 [CBK288848] | 106%
44 | Cc1ccc(Nc2ncc3c(n2)CCCC3=O)cc1 [CBK288143] | 87.6%

Row | SMILES | viability at 28.5 h, 10 µM
45 | CCN(Cc1ccncc1)C(=O)Nc1ccc(N(CC)CC)cc1 [CBK155141] | 90.3%
46 | CCN(Cc1ccncc1)C(=O)NCc1ccc2c(c1)OCO2 [CBK145056] | 102%
47 | CC1=C[C@@H](CO)[C@H](C(C)C)C[C@H]1Cc1nnc(-c2ccc(N(C)C)cc2)o1 [CBK289224] | 65%
48 | Nc1cc(N)nc(SCc2ccccc2)n1 [CBK261266] | 96.1%
49 | Nc1ncc(-c2cccc(OC(F)(F)F)c2)nc1-c1ccc(CCC(=O)O)cc1 [CBK064071] | 95.2%
50 | CS(=O)(=O)Nc1cc2ccccc2c(-c2ccc(OC(F)(F)F)cc2)n1 [CBK085757] | 121%
51 | c1sc(C2CN3CCCC3CO2)nc1C1CCCC1 (centres unmarked) [CBK304814] | 90.4%
52 | CCN(CC)C(=O)CN1CCC(c2ccc(OC)cc2)CC1 [CBK283559] | 102%
53 | CCN1CCN(C(=O)COc2cccnc2)CC1 [CBK200378] | 94.8%
54 | CC(C)(C)OC(=O)N1CCN(c2ccnc(N)n2)CC1 [CBK003529] | 99.4%
55 | COc1ccc(N(CCN2CCCCC2)S(=O)(=O)c2ccc(C)cc2)cc1 [CBK261131] | 98.7%
56 | Cc1[nH]c2ccccc2c1/C=N/c1ccc(/N=C/c2c(C)[nH]c3ccccc23)cc1 [CBK261226] | 83.4%
57 | CCCCN1C(=O)N(c2nnc(C(C)(C)C)s2)C(=O)C1c1ccc(Cl)c(Cl)c1 (centres unmarked) [CBK085921] | 114%
58 | CS(=O)(=O)Nc1ccc(C(=O)Nc2ccc(S(=O)(=O)N3CCCCCC3)cc2)cc1 [CBK268288] | 107%
59 | COc1ccccc1C1(O)CCN(Cc2ccccc2OCc2ccc3c(c2)OCO3)CC1 [CBK286337] | 80.4%
60 | Cc1cc(-c2cnc(N)nc2)cc(C2CCCN(S(=O)(=O)c3ccc(F)c(C)c3)C2)n1 (centres unmarked) [CBK285934] | 105%
61 | COc1cc(CN2CCN(C/C=C/c3ccccc3)CC2)cc(Br)c1O [CBK261582] | 101%
62 | CC(C)(C)OC(=O)N1CCC(c2nc(-c3cccnc3)no2)CC1 [CBK304332] | 84.6%
63 | COc1ccc(S(=O)(=O)N2CCC(C(=O)O)CC2)cc1Cl [CBK267162] | 94.9%
64 | CCC(=O)NC(=S)Nc1cccc(NC(=O)c2cccc(Cl)c2)c1 [CBK058759] | 93.6%
65 | CC(=O)Nc1cccc(-c2nccnc2NCc2ccc3c(c2)OCO3)c1 [CBK037972] | 97.1%
